Data on five molecules can be found in patent US20160258954A1, “METHOD OF DIAGNOSING AND TREATING EPSTEIN BARR VIRUS-BASED MYALGIC ENCEPHALOMYELITIS CHRONIC FATIGUE SYNDROME PATIENTS USING A SERUM ANTIBODY ASSAY” (CFS, LLC, priority 2015, published 2016).

Structures are written as SMILES.

For data set [1] the following is noted: Group A patients.
Another data set deals with SEID patients. The data set is described as follows: Reviews of antiviral therapy of EBV, CMV and HHV6 subset Group A SEID patients. In kind it is in vivo, human. To be noted: cidofovir: unpublished studies. From the text:
These antiviral agents inhibit the respective DNA polymerases of the appropriate CMV, EBV, HHV6 herpesviruses.[8] […] Herpesvirus (EBV, CMV, HHV6) abortive lytic replication may be associated with SEID.

In a further data set the test system is CFS patients. The data set can be described thus: Cidofovir treatment of CFS patients. In kind it is in vivo, human. How it is done:
In general, to provide a therapeutically effective amount of the antiviral agent, a suitable effective dose will be in the range of 0.1 to 20 grams a day and preferably in the range between 0.3 to 15 grams per day, more preferably about 0.5 to 10 grams per day. The dosage of course, varies with the body weight of the patient up to a 70 kg individual, a dose of 4 grams per day may be appropriate (e.g., […] valacyclovir every six hours). The desired dose can be presented as two-four or more smaller doses administered at appropriate intervals throughout the day. These smaller doses may be administered in unit's dosage forms. For example, for valacyclovir and famciclovir, the dosage can be, for example 14 mg/kg every 6 hours (1.0 g every 6 hours for a 70 kg person). The dosage of valacyclovir and famciclovir can be, for example, up to or at least about 0.5-8 grams every 6 hours. The dosage of valgancyclovir can be, for example, from about 450-900 mg every 12 hours, or up to or at least about 100-2000 mg or more every 12 hours, depending on for example patient weight and tolerance. For maribavir the dosage can be, for example, for about 400-500 mg every 8 hours or for example up to or at least about 100-1000 or more every 8 hours. […] Accordingly, the dosage is adjusted to […] every two weeks. […]

The test system of data set [2] is Group A ME/CFS patients (EBV, HCMV, HHV6 subsets). The data set can be described thus: Systematic review 2001-2007 of Group A ME/CFS patients given subset-directed antiviral treatment. In kind it is in vivo, human. The settings on record: 79 of 106 group A patients, pooled valacyclovir (EBV subset) or valganciclovir (HCMV, HHV6 subsets); p<0.0001. From the text:
A ME/CFS diagnostic panel was created utilizing initial Fukuda/Carruthers criteria and a systematic review of 142 ME/CFS patients. Two groups of ME/CFS patients were found. Group A patients had elevated serum IgG antibody titers to the herpes viruses Epstein-Barr virus (EBV), cytomegalovirus (HCMV) and Human Herpes virus 6 (HHV6) in single or multiple virus infection, but no other co-infections. Group B patients had similar elevated herpes virus antibody titers, plus serologic evidence of co-infections, tick-borne (“Borrelia burgdorferi”, “Anaplasma phagocytophilia”, “Babesia microti”); “Mycoplasma pneumoniae”; or adult rheumatoid fever. One hundred and six group A ME/CFS patients were followed from 2001-2007, and treated with subset directed valacyclovir EBV subset or valganciclovir (HCMV, HHV6 subsets). The data included over 7000 patient visits and 35,000 data entries.

The test system of data set [3] is EBV subset ME/CFS patients. The data set is described as follows: Energy Index Point Score (EIPS) of six EBV subset ME/CFS patients treated with valacyclovir for over 12 months. In kind it is in vivo, human. The source says: FIG. 2A is a table depicting the clinical results that establish EBV Abortive Lytic replication in the first of six EBV subset ME/CFS patients treated with valacyclovir for over 12 months;
As depicted in FIG. 1, the Energy Index (EI) point score (Copyright, Lerner AM and Deeter R G, 1999), is a simple and reliable metric that can be used to easily evaluate the functional capacity of the CFS patient at each patient-physician visit. *The CFS Energy Index point score can also be determined by questionnaire (US copyright, 1999 Lerner A. M., Deeter, R. J) reproduced with permission. **Kcal per day is calculated for a 70 kg CFS patient. The EI is measured on a scale of 1-10. Validation of the EI was done using two methods: 1.) 20 CFS patients and 22 healthy adults, matched for sex, age, place, and time; EI, CFS=3.6; EI, healthy adults=9.9, p=<0.0001; and 2.) 55 CFS patients evaluated at the same time by the EI and fatigue severity score, correlation 0.67, p=0.0066. Improvement to disappearance of CFS symptoms correlates with an increasing EI.
The validated energy index point score generally can be calculated for each CFS patient every 3 months at physician visits. […]
Demographics. […] The EIPS is a validated (FSS-9 item scale with high degree of internal consistency measured by Cronbach's alpha) is a Functional Activity Appraisal: energy Index Score Healthcare worker Appraisal.

For a further data set, the target named is EBV thymidine kinase (Epstein-Barr virus, UniProt P03177). The settings on record: after gastrointestinal absorption; cited from earlier work.
EBV thymidine kinase, sequence (P03177 whole entry): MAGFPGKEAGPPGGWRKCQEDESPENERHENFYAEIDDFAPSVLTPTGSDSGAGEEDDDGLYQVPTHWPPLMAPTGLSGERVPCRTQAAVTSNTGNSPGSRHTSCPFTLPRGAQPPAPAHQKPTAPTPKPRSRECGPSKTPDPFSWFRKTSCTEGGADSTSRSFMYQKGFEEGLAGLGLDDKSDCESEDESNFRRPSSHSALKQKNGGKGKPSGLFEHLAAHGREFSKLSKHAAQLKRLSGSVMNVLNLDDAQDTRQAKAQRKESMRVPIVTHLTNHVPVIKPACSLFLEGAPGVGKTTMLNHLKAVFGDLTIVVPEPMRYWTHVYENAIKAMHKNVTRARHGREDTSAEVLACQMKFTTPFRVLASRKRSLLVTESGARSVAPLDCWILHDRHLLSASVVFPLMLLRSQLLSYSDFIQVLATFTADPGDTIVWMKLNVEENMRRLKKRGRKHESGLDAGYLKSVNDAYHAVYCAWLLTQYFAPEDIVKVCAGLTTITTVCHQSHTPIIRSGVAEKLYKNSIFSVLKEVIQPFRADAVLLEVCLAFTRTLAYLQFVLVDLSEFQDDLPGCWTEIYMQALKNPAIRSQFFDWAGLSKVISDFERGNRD

As to `Nc1nc2c(ncn2COCCO)c(=O)[nH]1` [acylocivir], the absorption entry in data set [1] is reported as “typically not absorbed”.
As to `Nc1ccn(C[C@@H](CO)OCP(=O)(O)O)c(=O)n1` [cidofovir], the “therapeutic result in SEID patients” value in the data set with SEID patients was “salutary results”. In the data set on CFS patients (administered intravenously), the “effectiveness relative to other antiviral agents” value is reported as “two to three time more effective”. Moreover, in the data set on CFS patients (patients over 50 and/or CFS over 10 years, reduced from over one year), the treatment time is recorded as 6-9 months.
For `CC(C)[C@H](N)C(=O)OCC(CO)OCn1cnc2c(=O)nc(N)[nH]c21` (stereo partly drawn) [valganciclovir], in data set [2], the “Group A patients recovered to resume normal life” value worked out at 74.5%. For the same molecule, the “therapeutic result in SEID patients” value in the data set with SEID patients was “salutary results”.
With `CC(=O)OCC(CCn1cnc2cnc(N)nc21)COC(C)=O` [famciclovir], the “therapeutic result in SEID patients” value in the data set on SEID patients is recorded as “salutary results”.
As to `CC(C)[C@H](N)C(=O)OCCOCn1cnc2c(=O)[nH]c(N)nc21` [valacyclovir], in data set [2], the “Group A patients recovered to resume normal life” value worked out at 74.5%. Besides, the “therapeutic result in SEID patients” value in the data set with SEID patients is listed as “salutary results”. Moreover, in data set [3] (5 group A ME/CFS patients, one year later, initial EIPS 3.5-5.0 (one patient 6)), the “final EIPS values” is 7-8. In data set [3] (single group B ME/CFS patient (Borrelia burgdorferi co-infection), baseline 3.5), the “final EIPS value” is listed as 5. Moreover, the “greater affinity for EBV thymidine kinase than for the host cellular enzyme” value on EBV thymidine kinase is listed as 200 ×.
